Reference: patent US10730913B1, “Antimicrobial analogues of gramicidin S” (priority 2018, dated 2020)
Numbered stars: 1 amine (or outer) side, 2 acyl side, 3 side chain; on linkers, the order of the positions; unused ones are H or OH. Square brackets hold non-standard residues; d marks the D form. Peptide text beside a SMILES is read from it. X1 = NN([C@H](Cc1ccccc1)C(=O)[*:2])[*:1]; Orn(Nα-NH2) = NCCC[C@H](NN)C(=O)O; Orn = NCCC[C@H](N)C(=O)O

Assays:
Assay type in all cases: cell-based
[1] = tested on: Staphylococcus aureus; assay: MIC determination against ESKAPE pathogens (broth culture, 96-well, turbidity); conditions: Staphylococcus aureus strain 635; 37° C.
Procedure: (§1) The antimicrobial activity of the compounds disclosed herein was tested against a variety of bacteria. The bacterial strains comprised a panel of drug-resistant gram-positive and gram-negative bacteria known as ESKAPE pathogens. The minimum inhibitory concentration (MIC) for the compounds were determined as follows. Broth cultures of ESKAPE strains were grown overnight before being diluted 1 in 1000 in fresh media. Sterile 96-well plates were loaded with culture, and compounds (in DMSO) were added at decreasing concentrations to equal a total volume of 200 μL per well. Care was taken to not add more than 2.0% DMSO to any well. Plates were then incubated at 37° C., and MICs determined after 24 h by visual inspection for a lack of turbidity in wells. All assays were performed in triplicate with identical results obtained.

[2] = tested on: Pseudomonas aeruginosa; assay: as above; conditions: Pseudomonas aeruginosa strain 1419; 37° C.
Procedure: as §1

[3] = tested on: Acinetobacter baumannii; assay: as above; conditions: Acinetobacter baumannii strain 5075; 37° C.
Procedure: as §1

[4] = tested on: Enterococcus faecium; assay: as above; conditions: Enterococcus faecium strain 1450; 37° C.
Procedure: as §1

[5] = tested on: Enterobacter cloacae; assay: as above; conditions: Enterobacter cloacae strain 1454; 37° C.
Procedure: as §1

[6] = tested on: Human red blood cells (hRBCs); assay: Hemolysis assay using whole human blood; conditions: for Hemolytic Activity (% Hemolysis): hRBCs, 15 min at 37° C., relative to 1.0% triton X-100
Procedure: Hemolytic Activity: The hemolytic activity of the compounds disclosed herein was also tested. A hemolysis assay was performed using whole human blood (Bioreclamation). […] Cells were incubated for 15 min at 37° C. before being centrifuged at 5500 g for 1 min to pellet nonlysed hRBCs. The supernatant was removed, added to a 96-well microtiter plate, and the OD543 was read using a Biotek synergy2 plate reader. The negative control was vehicle only (DMSO), and the positive control was 1.0% triton X-100.

[7] = tested on: gram-negative bacteria; assay: Antimicrobial activity, summary for gram-negative bacteria; conditions: compared to GS
Procedure: as §1

| Compound | MC90 Results, Sa (+) [1] [µM] | MC90 Results, Pa (−) [2] [µM] | MC90 Results, Ab (−) [3] [µM] | MC90 Results, Ef (+) [4] [µM] | MC90 Results, Ec (−) [5] [µM] | Hemolytic Activity (% Hemolysis) ([6]; 6.25 μM) [%] | Hemolytic Activity (% Hemolysis) ([6]; 12.5 μM) [%] | Hemolytic Activity (% Hemolysis) ([6]; 25 μM) [%] | Hemolytic Activity (% Hemolysis) ([6]; 50 μM) [%] | activity against gram-negative bacteria [7] | toxicity to human cells compared to GS [6] |
| --- | --- | --- | --- | --- | --- | --- | --- | --- | --- | --- | --- |
| CC(C)C[C@@H]1NC(=O)[C@H](CCCN)NC(=O)[C@H](C(C)C)NC(=O)[C@@H]2CCCN2C(=O)[C@@H](Cc2ccccc2)N(N)C(=O)[C@H](CC(C)C)NC(=O)[C@H](CCCN)NC(=O)[C@H](C(C)C)NC(=O)[C@@H]2CCCN2C(=O)[C@@H](Cc2ccccc2)NC1=O [Compound 1] (HELM PEPTIDE1{L.[dF].P.V.[Orn].L.[NN([C@H](Cc1ccccc1)C(=O)[*:2])[*:1]].P.V.[Orn]}$PEPTIDE1,PEPTIDE1,1:R1-10:R2$$$V2.0) | >50 | >50 | >50 | >50 | >50 | 0.00 | 0.00 | 0.00 | 0.00 |  |  |
| CC(C)C[C@@H]1NC(=O)[C@H](CCCN)NC(=O)[C@H](C(C)C)NC(=O)[C@@H]2CCCN2C(=O)[C@@H](Cc2ccccc2)N(N)C(=O)[C@H](CC(C)C)NC(=O)[C@H](CCCN)NC(=O)[C@H](C(C)C)NC(=O)[C@@H]2CCCN2C(=O)[C@@H](Cc2ccccc2)N(N)C1=O [Compound 2] (HELM PEPTIDE1{L.[NN([C@H](Cc1ccccc1)C(=O)[*:2])[*:1]].P.V.[Orn].L.[NN([C@H](Cc1ccccc1)C(=O)[*:2])[*:1]].P.V.[Orn]}$PEPTIDE1,PEPTIDE1,1:R1-10:R2$$$V2.0) | 4 | 35 | 12.5 | 4 | >50 | 0.00 | 0.00 | 2.84 | 11.24 |  |  |
| CC(C)C[C@@H]1NC(=O)[C@H](CCCN)NC(=O)[C@H](C(C)C)NC(=O)[C@@H]2CCCN2C(=O)[C@@H](Cc2ccccc2)NC(=O)[C@H](CC(C)C)NC(=O)[C@H](CCCN)N(N)C(=O)[C@H](C(C)C)NC(=O)[C@@H]2CCCN2C(=O)[C@@H](Cc2ccccc2)NC1=O [Compound 3] (HELM PEPTIDE1{L.[dF].P.V.[Orn].L.[dF].P.V.[NCCC[C@@H](C(=O)[*:2])N(N)[*:1]]}$PEPTIDE1,PEPTIDE1,1:R1-10:R2$$$V2.0) | 2 | 13 | 6.5 | 3 | 30 | 0.00 | 0.00 | 1.49 | 13.68 |  |  |
| CC(C)C[C@@H]1NC(=O)[C@H](CCCN)N(N)C(=O)[C@H](C(C)C)NC(=O)[C@@H]2CCCN2C(=O)[C@@H](Cc2ccccc2)N(N)C(=O)[C@H](CC(C)C)NC(=O)[C@H](CCCN)NC(=O)[C@H](C(C)C)NC(=O)[C@@H]2CCCN2C(=O)[C@@H](Cc2ccccc2)NC1=O [Compound 4] (HELM PEPTIDE1{L.[dF].P.V.[Orn].L.[NN([C@H](Cc1ccccc1)C(=O)[*:2])[*:1]].P.V.[NCCC[C@@H](C(=O)[*:2])N(N)[*:1]]}$PEPTIDE1,PEPTIDE1,1:R1-10:R2$$$V2.0) | 2 | 15 | 6.5 | 3 | 30 | 0.00 | 0.00 | 1.98 | 14.00 |  |  |
| CC(C)C[C@@H]1NC(=O)[C@H](CCCN)NC(=O)[C@H](C(C)C)NC(=O)[C@@H]2CCCN2C(=O)[C@@H](Cc2ccccc2)N(N)C(=O)[C@H](CC(C)C)NC(=O)[C@H](CCCN)N(N)C(=O)[C@H](C(C)C)NC(=O)[C@@H]2CCCN2C(=O)[C@@H](Cc2ccccc2)N(N)C1=O [Compound 5] (cyclo(L[X1]PV[Orn]L[X1]PV[Orn(Nα-NH2)])) |  |  |  |  |  | 0.21 | 0.00 | 2.82 | 17.93 |  |  |
| CC(C)C[C@@H]1NC(=O)[C@H](CCCN)NC(=O)[C@H](C(C)C)NC(=O)[C@@H]2CCCN2C(=O)[C@@H](Cc2ccccc2)N(N)C(=O)[C@H](CC(C)C)NC(=O)[C@H](CCCN)N(N)C(=O)[C@H](C(C)C)NC(=O)[C@@H]2CCCN2C(=O)[C@@H](Cc2ccccc2)NC1=O [Compound 6] (HELM PEPTIDE1{L.[dF].P.V.[NCCC[C@@H](C(=O)[*:2])N(N)[*:1]].L.[NN([C@H](Cc1ccccc1)C(=O)[*:2])[*:1]].P.V.[Orn]}$PEPTIDE1,PEPTIDE1,1:R1-10:R2$$$V2.0) |  |  |  |  |  | 0.00 | 0.00 | 3.24 | 17.91 |  |  |
| CC(C)C[C@@H]1NC(=O)[C@H](CCCN)N(N)C(=O)[C@H](C(C)C)NC(=O)[C@@H]2CCCN2C(=O)[C@@H](Cc2ccccc2)NC(=O)[C@H](CC(C)C)NC(=O)[C@H](CCCN)N(N)C(=O)[C@H](C(C)C)NC(=O)[C@@H]2CCCN2C(=O)[C@@H](Cc2ccccc2)NC1=O [Compound 7] (HELM PEPTIDE1{L.[dF].P.V.[NCCC[C@@H](C(=O)[*:2])N(N)[*:1]].L.[dF].P.V.[NCCC[C@@H](C(=O)[*:2])N(N)[*:1]]}$PEPTIDE1,PEPTIDE1,1:R1-10:R2$$$V2.0) | 2 | 10 | 4 | 2 | 20 | 0.00 | 0.21 | 3.57 | 15.84 | improved significantly |  |
| CC(C)C[C@@H]1NC(=O)[C@H](CCCN)N(N)C(=O)[C@H](C(C)C)NC(=O)[C@@H]2CCCN2C(=O)[C@@H](Cc2ccccc2)N(N)C(=O)[C@H](CC(C)C)NC(=O)[C@H](CCCN)N(N)C(=O)[C@H](C(C)C)NC(=O)[C@@H]2CCCN2C(=O)[C@@H](Cc2ccccc2)NC1=O [Compound 8] (cyclo(L[dF]PV[Orn(Nα-NH2)]L[X1]PV[Orn(Nα-NH2)])) | 2 | 12 | 6 | 2 | >50 | 0.00 | 0.88 | 2.91 | 15.07 |  |  |
| CC(C)C[C@@H]1NC(=O)[C@H](CCCN)N(N)C(=O)[C@H](C(C)C)NC(=O)[C@@H]2CCCN2C(=O)[C@@H](Cc2ccccc2)N(N)C(=O)[C@H](CC(C)C)NC(=O)[C@H](CCCN)N(N)C(=O)[C@H](C(C)C)NC(=O)[C@@H]2CCCN2C(=O)[C@@H](Cc2ccccc2)N(N)C1=O [Compound 9] (cyclo(L[X1]PV[Orn(Nα-NH2)]L[X1]PV[Orn(Nα-NH2)])) | 2 | 15 | 5 | 2 | >50 | 0.00 | 2.75 | 6.19 | 25.01 |  | exception |
